What follows are molecules tested against T1, RANTES/MIP-1α chemokine receptor (CCR1) in THP-1 cell membranes (Homo sapiens, UniProt P32246) (assay: Receptor binding assay: 125I-RANTES or 125I-MIP-1α binding to THP-1 cell membranes). Conditions: inhibitor concentration required for 50% inhibition of specific binding; 125I-RANTES or 125I-MIP-1α as ligand, THP-1 cell membranes; read-out: IC50.
T1 construct: Membranes were prepared from THP-1 cells (ATCC #TIB202); host or cells: THP-1 cells (membrane preparation)
T1 sequence (P32246 1-355): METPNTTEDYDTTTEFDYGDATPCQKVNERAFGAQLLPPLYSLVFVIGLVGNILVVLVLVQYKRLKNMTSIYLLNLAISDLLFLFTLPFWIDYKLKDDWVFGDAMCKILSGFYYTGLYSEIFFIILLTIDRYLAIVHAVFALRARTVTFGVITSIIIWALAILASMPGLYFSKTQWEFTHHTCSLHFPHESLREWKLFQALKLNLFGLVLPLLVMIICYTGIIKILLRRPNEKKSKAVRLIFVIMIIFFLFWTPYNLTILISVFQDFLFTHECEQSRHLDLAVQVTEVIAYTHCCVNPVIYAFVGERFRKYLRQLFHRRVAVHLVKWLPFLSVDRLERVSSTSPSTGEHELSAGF

SMILES | IC50
CC(C)(O)c1ccc2c(c1)C(=CCCN1CCC(O)(c3ccc(Cl)cc3)C(C)(CO)C1)c1cccnc1CO2 (centres unmarked) [Example 482, 4-(4-Chloro-phenyl)-3-hydroxymethyl-1-{3-[7-(hydroxyl-1-methyl-ethyl)-11H-10-oxa-1-aza-dibenzo[a, d]cyclohepten-5-ylidene]-propyl}-3-methyl-piperidine-4-ol] | < 1000 nM
CCOCC1(C)CN(CCC=C2c3cc(C(C)(C)O)ccc3OCc3ncccc32)CCC1(O)c1ccc(Cl)cc1 (centres unmarked) [Example 484, 4-(4-Chloro-phenyl)-3-ethoxymethyl-1-{3 [7-(-hydroxy-1-methyl-ethyl)-11H-10-oxa-1-aza-dibenzo[a,d]cyclohepten-5-ylidene]-propyl}-3-methyl-piperidin-4-ol] | < 1000 nM
CCOC(=O)COCC1(C)CN(CCC=C2c3cc(C(C)(C)O)ccc3OCc3ncccc32)CCC1(O)c1ccc(Cl)cc1 (centres unmarked) [Example 485, (4-(4-Chloro-phenyl)-4-hydroxy-1-{3 [7-(1-hydroxy-1-methyl-ethyl)-11H-10-oxa-1-aza-dibenzo[a,d]cyclohepten-5-ylidene]-propyl}-3-methyl-piperidin-3-ylmethoxy)-acetic acid ethyl ester] | < 1000 nM
CCN(CC)CCOCC1(C)CN(CCC=C2c3cc(C(C)(C)O)ccc3OCc3ncccc32)CCC1(O)c1ccc(Cl)cc1 (centres unmarked) [Example 486] | < 1000 nM
CCN(Cc1ccc(Cl)cc1)C1CCN(CCC=C2c3cc(C(C)(C)O)ccc3OCc3ncccc32)CC1 [Example 487, 2-[5-(3-{4-[(4-Chloro-benzyl)ethyl-amino]-piperidin-1-yl}-propylidene)-5,11-dihydro-10-oxa-1-aza-dibenzo[a,d]cyclohepten-7-yl]-propan-2-ol] | < 1000 nM
CC(C)(O)c1ccc2c(c1)C(=CCCN1CCC(O)(c3ccccc3Cl)CC1)c1cccnc1CO2 [Example 489, 4-(2-Chloro-phenyl)-1-{3-[7-(1-hydroxy-1-methyl-ethyl)-11H-10-oxa-1-azadibenzo[a,d]cyclohepten-5-ylidene]-propyl}-piperidin-4-ol] | < 10000 nM
Cc1cc(Cl)ccc1C1(O)CCN(CCC=C2c3cc(C(C)(C)O)ccc3OCc3ncccc32)CC1 [Example 490, 4-(4-Chloro-2-methyl-phenyl)-1-{3-[7-(1-hydroxy-1-methyl-ethyl)-11H-10-oxa-1-aza-dibenzo[a,d]cyclohepten-5-ylidene]-propyl}-piperidin-4-ol] | < 1000 nM
CC(C)(O)c1ccc2c(c1)C(=CCCN1CCC(O)(c3ccc(Cl)c(Cl)c3)CC1)c1cccnc1CO2 [Example 491, 4-(3,4-Dichloro-phenyl)-1-{3-[7-(1-hydroxy-1-methyl-ethyl)-11H-10-oxa-1-aza-dibenzo[a,d]cyclohepten-5-ylidene]-propyl}-piperidin-4-ol] | < 1000 nM
CC(C)(O)c1ccc2c(c1)C(=CCCN1CCC(O)(c3ccc(Cl)c([N+](=O)[O-])c3)CC1)c1cccnc1CO2 [Example 492, 4-(4-Chloro-3-nitro-phenyl)-1-{3-[7-(1-hydroxy-1-methyl-ethyl)-11H-10-oxa-1-aza-dibenzo[a,d]cyclohepten-5-ylidene]-propyl}-piperidin-4-ol] | < 10000 nM
CCN(c1ccc(Cl)cc1)C1CCN(CCC=C2c3cc(C(C)(C)O)ccc3OCc3ncccc32)CC1 [Example 493, 2-[5-(3-{4-[(4-Chloro-phenyl)-ethyl-amino]-piperidin-1-yl}-propylidene)-5,11-dihydro-10-oxa-1-aza-dibenzo[a,d]cyclohepten-7-yl]-propan-2-ol] | < 10000 nM
COC1(c2ccc(Cl)cc2)CCN(CCC=C2c3cc(C(C)(C)O)ccc3OCc3ncccc32)CC1 [Example 494, 2-(5-{3-[4-(4-Chloro-phenyl)-4-methoxy-piperidin-1-yl]-propylidene}-5,11-dihydro-10-oxa-1-aza-dibenzo[a,d]cyclohepten-7-yl)-propan-2-ol] | < 1000 nM
CC(C)(O)c1ccc2c(c1)C(=CCCN1CCC(Oc3ccccc3Cl)CC1)c1cccnc1CO2 [Example 495, 2-(5-{3-[4-(2-Chloro-phenoxy)-piperidin-1-yl]-propylidene}-5,11-dihydro-10-oxa-1-aza-dibenzo[a,d]cyclohepten-7-yl)-propan-2-ol] | < 1000 nM
CC(C)(O)c1ccc2c(c1)C(=CCCN1CCC(C(=O)c3ccc(Cl)cc3)CC1)c1cccnc1CO2 [Example 496, (4-Chloro-phenyl)-(1-{3-[7-(1-hydroxy-1-methyl-ethyl)-11H-10-oxa-1-aza-dibenzo[a,d]cyclohepten-5-ylidene]-propyl}-piperidin-4-yl)-methanone] | < 10000 nM
CC(C)(O)c1ccc2c(c1)C(=CCCN1CCC(Oc3ccc(C(F)(F)F)cc3)CC1)c1cccnc1CO2 [Example 497, 2-(5-{3-[4-(4-trifluoromethyl-phenoxy)-piperidin-1-yl]-propylidene}-5,11-dihydro-10-oxa-1-aza-dibenzo[a,d]cyclohepten-7-yl)-propan-2-ol] | < 10000 nM
CC(C)(O)c1ccc2c(c1)C(=CCCN1CCC(N3C(=O)OCC3Cc3ccc(Cl)cc3)CC1)c1cccnc1CO2 (centres unmarked) [Example 498, 4-(4-Chloro-benzyl)-3-(1-{3-[7-(1-hydroxy-1-methyl-ethyl)-11H-10-oxa-1-aza-dibenzo[a,d]cyclohepten-5-ylidene]-propyl}-piperidin-4-yl)-oxazolidin-2-one] | < 10000 nM
C=C(C)c1ccc2c(c1)C(=CCCN1CCC(c3ccc(Cl)cc3)(C(C)O)CC1)c1cccnc1CO2 (centres unmarked) [Example 499, 1-{4-(4-Chloro-phenyl)-1-[3-(7-isopropenyl-11H-10-oxa-1-aza-dibenzo[a,d]cyclohepten-5-ylidene)-propyl]-piperidin-4-yl}-ethanol] | < 10000 nM
COC(=O)CN(Cc1ccc(Cl)cc1)C1CCN(CCC=C2c3cc(C(C)(C)O)ccc3OCc3ncccc32)CC1 [Example 500, [(4-Chloro-benzyl)-(1-{3-[7-(1-hydroxy-1-methyl-ethyl)-11H-10-oxa-1-aza-dibenzo[a,d]cyclohepten-5-ylidene]-propyl}-piperidin-4-yl)-amino]-acetic acid methyl ester] | < 10000 nM
CC(C)(O)c1ccc2c(c1)C(=CCCN1CCC(N(CC(=O)O)Cc3ccc(Cl)cc3)CC1)c1cccnc1CO2 [Example 501, [(4-Chloro-benzyl)-(1-{3-[7-(1-hydroxy-1-methyl-ethyl)-11H-10-oxa-1-aza-dibenzo[a,d]cyclohepten-5-ylidene]-propyl}-piperidin-4-yl)-amino]-acetic acid] | < 10000 nM
CC(C)(O)c1ccc2c(c1)C(=CCCN1CC[C@](O)(c3ccc(Cl)cc3)C(C)(C)C1)c1cccnc1CO2 [Example 502, S-4-(4-Chloro-phenyl)-1-{3-[7-(1-hydroxy-1-methyl-ethyl)-11H-10-oxa-1-aza-dibenzo[a,d]cyclohepten-5-ylidene]-propyl}-3,3-dimethyl-piperidin-4-ol] | < 1000 nM
CC(C)(O)c1ccc2c(c1)C(=CCCN1CC[C@@](O)(c3ccc(Cl)cc3)C(C)(C)C1)c1cccnc1CO2 [Example 503, R-4-(4-Chloro-phenyl)-1-{3-[7-(1-hydroxy-1-methyl-ethyl)-11H-10-oxa-1-aza-dibenzo[a,d]cyclohepten-5-ylidene]-propyl}-3,3-dimethyl-piperidin-4-ol] | < 1000 nM
CC(=O)c1ccc2c(c1)C(=CCCN1CC[C@](O)(c3ccc(Cl)cc3)C(C)(C)C1)c1cccnc1CO2 [Example 504, S-1-(5-{3-[4-(4-Chloro-phenyl)-4-hydroxy-3,3-dimethyl-piperidin-1-yl]-propylidene}-5,11-dihydro-10-oxa-1-aza-dibenzo[a,d]cyclohepten-7-yl)-ethanone] | < 1000 nM
CC(=O)c1ccc2c(c1)C(=CCCN1CC[C@@](O)(c3ccc(Cl)cc3)C(C)(C)C1)c1cccnc1CO2 [Example 505, R-1-(5-{3-[4-(4-Chloro-phenyl)-4-hydroxy-3,3-dimethyl-piperidin-1-yl]-propylidene}-5,11-dihydro-10-oxa-1-aza-dibenzo[a,d]cyclohepten-7-yl)-ethanone] | < 1000 nM
CC(=O)OCCOc1ccc2c(c1)C(=CCCN1CCC(O)(c3ccc(Cl)cc3)C(C)(C)C1)c1cccnc1CO2 (centres unmarked) [Example 506, Acetic acid 2-(5-{3-[4-(4-chloro-phenyl)-4-hydroxy-3,3-dimethyl-piperidin-1-yl]-propylidene}-5,11-dihydro-10-oxa-1-aza-dibenzo[a,d]cyclohepten-7-yloxy)-ethyl ester] | < 1000 nM
CC1(C)CN(CCC=C2c3cc(OCCO)ccc3OCc3ncccc32)CCC1(O)c1ccc(Cl)cc1 (centres unmarked) [Example 507, 4-(4-Chloro-phenyl)-1-{3-[7-(2-hydroxy-ethoxy)-11H-10-oxa-1-aza-dibenzo[a,d]cyclohepten-5-ylidene]-propyl}-3,3-dimethyl-piperidin-4-ol] | < 1000 nM
COCCOc1ccc2c(c1)C(=CCCN1CCC(O)(c3ccc(Cl)cc3)C(C)(C)C1)c1cccnc1CO2 (centres unmarked) [Example 508, 4-(4-Chloro-phenyl)-1-{3-[7-(2-methoxy-ethoxy)-11H-10-oxa-1-aza-dibenzo [a,d]cyclohepten-5-ylidene]-propyl}-3,3-dimethyl-piperidin-4-ol] | < 1000 nM
CC1(C)CN(CCC=C2c3cc(O)ccc3OCc3ncccc32)CCC1(O)c1ccc(Cl)cc1 (centres unmarked) [Example 509, 5-{3-[4-(4-Chloro-phenyl)-4-hydroxy-3,3-dimethyl-piperidin-1-yl]-propylidene}-5,11-dihydro-10-oxa-1-aza-dibenzo[a,d]cyclohepten-7-ol] | < 1000 nM
